From patent US8119681B2, “2-[1-phenyl-5-hydroxy or methoxy-4alpha-methyl-hexahydrocyclopenta [ƒ]indazole-5-YL]ethyl phenyl derivatives as glucocorticoid receptor ligands” (Merck Sharp & Dohme Corp., priority 2006, dated 2012)

molecular target: T1, human GR (Homo sapiens, UniProt P04150); assay: Transrepression Assay (GITAR), TNFα-β-lactamase reporter gene in U937 cells; assay type: cell-based; set-up: U937 cells contain an endogenous glucocorticoid receptor (GR); endogenous in cells; host or cells: U937 cells stably transfected with the TNF-α promoter/β-lactamase reporter only; settings: U-937; 100 nM dexamethasone = 100% activity; read-out: maximal activity in the transrepression assay
T1 sequence (P04150 1-777): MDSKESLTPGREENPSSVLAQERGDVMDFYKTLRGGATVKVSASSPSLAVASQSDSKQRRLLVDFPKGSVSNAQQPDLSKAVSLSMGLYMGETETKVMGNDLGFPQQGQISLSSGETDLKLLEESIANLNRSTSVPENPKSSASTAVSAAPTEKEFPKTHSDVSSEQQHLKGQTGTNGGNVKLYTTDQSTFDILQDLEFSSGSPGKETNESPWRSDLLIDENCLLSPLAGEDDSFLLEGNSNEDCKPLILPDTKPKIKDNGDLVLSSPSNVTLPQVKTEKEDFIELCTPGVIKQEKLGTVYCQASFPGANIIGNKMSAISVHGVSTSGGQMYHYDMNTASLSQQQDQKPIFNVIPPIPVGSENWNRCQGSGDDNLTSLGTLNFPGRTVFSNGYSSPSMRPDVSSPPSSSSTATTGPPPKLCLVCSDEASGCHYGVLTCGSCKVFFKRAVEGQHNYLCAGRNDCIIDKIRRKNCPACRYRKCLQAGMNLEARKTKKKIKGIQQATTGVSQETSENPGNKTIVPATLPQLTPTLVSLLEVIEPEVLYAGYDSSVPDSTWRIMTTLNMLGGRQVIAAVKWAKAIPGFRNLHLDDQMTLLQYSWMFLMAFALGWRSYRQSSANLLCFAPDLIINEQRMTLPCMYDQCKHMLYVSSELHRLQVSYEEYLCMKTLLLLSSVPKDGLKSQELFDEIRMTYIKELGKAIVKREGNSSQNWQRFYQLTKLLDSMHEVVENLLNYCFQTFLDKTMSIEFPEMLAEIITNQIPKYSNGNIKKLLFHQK
Description: Transrepression Assay (GITAR)
This assay assesses the ability of test compounds to control transcription from the TNFα-β-lactamase reporter gene in U937 cells, a human myelomonocytic leukemia cell line that naturally expresses the human GR. The assay measures compound dependent-repression of the TNFa promoter linked to a reporter gene.
The human U937 cells that had been stably transfected with the TNF-α promoter driving β-lactamase are used for this assay. U937 cells contain an endogenous glucocorticoid receptor (GR). […] 50,000 cells/well are plated in 96 well black-walled plates the day of assay. Test compounds are added 10 μL/well, and cells are incubated at 37° C. for 30˜45 min. For assaying compounds, first dilute 1:10 in DMSO to make 1 mM, then further dilute 1:100 in medium to make 10× stock prior to adding to the cells. Add 50 ng/ml PMA (Sigma, cat# P8139) 10 μL/well to a final concentration 5 ng/ml, and 1 μg/ml LPS (Sigma, cat# L4130) 10 μL/well to a final concentration 100 ng/ml. Incubate cells at 370 C overnight for ˜18 hr. PMA is stored frozen as 100 μg/ml stock in DMSO. Dilute 1:10 in DMSO for a working stock of 10 μg/ml and store at −20 C. For assaying, dilute the 10 μg/ml working stock 1:200 in medium to make a 10× solution (50 ng/ml). Store frozen LPS at 1 mg/ml in PBS, dilute 1:1000 in medium to make 10× (1 μg/ml) for the assay. Add 6× loading buffer (CCF2-AM) 20 μL/well, and incubate at room temperature for 70˜90 min. […] The activity repressed by 100 nM dexamethasone alone is set as 100% activity.

Emax, 5 to 100%:
C[C@]12Cc3cnn(-c4ccc(F)cc4)c3C=C1CC[C@@]2(O)CCc1ccccc1CC(=O)NCC(F)(F)F [Example 56, 2-(2-{2-[(4αS,5R)-1-(4-fluorophenyl)-5-hydroxy-4α-methyl-1,4,4α,5,6,7-hexahydrocyclopenta[f]indazol-5-yl]ethyl}phenyl)-N-(2,2,2-trifluoroethyl)acetamide]
C[C@]12Cc3cnn(-c4ccc(F)cc4)c3C=C1CC[C@@]2(O)CCc1ccccc1C(=O)N1CC[C@@H](O)C1 [Example 58, (4αS,5R)-1-(4-fluorophenyl)-5-[2-(2-{[(3R)-3-hydroxypyrrolidin-1-yl]carbonyl}phenyl)ethyl]-4α-methyl-1,4,4α,5,6,7-hexahydrocyclopenta[f]indazol-5-ol]
C[C@]12Cc3cnn(-c4ccc(F)cc4)c3C=C1CC[C@@]2(O)CCc1ccccc1C(N)=O [Example 60, 2-{2-[(4αS,5R)-1-(4-fluorophenyl)-5-hydroxy-4α-methyl-1,4,4α,5,6,7-hexahydrocyclopenta[f]indazol-5-yl]ethyl}benzamide]
CC1(NC(=O)c2c(F)cccc2CC[C@]2(O)CCC3=Cc4c(cnn4-c4ccc(F)cc4)C[C@@]32C)CC1 [Example 63, 2-fluoro-6-{2-[(4αS,5R)-1-(4-fluorophenyl)-5-hydroxy-4α-methyl-1,4,4α,5,6,7-hexahydrocyclopenta[f]indazol-5-yl]ethyl}-N-(1-methylcyclopropyl)benzamide]
C[C@]12Cc3cnn(-c4ccc(F)cc4)c3C=C1CC[C@@]2(O)CCc1ccccc1C(=O)NCC(F)(F)F [Example 64, 2-{2-[(4αS,5R)-1-(4-fluorophenyl)-5-hydroxy-4α-methyl-1,4,4α,5,6,7-hexahydrocyclopenta[f]indazol-5-yl]ethyl}-N-(2,2,2-trifluoroethyl)benzamide]
C[C@]12Cc3cnn(-c4ccc(F)cc4)c3C=C1CC[C@@]2(O)CCc1cccc(F)c1C(=O)N1CCC1 [Example 65, (4αS,5R)-5-{2-[2-(azetidin-1-ylcarbonyl)-3-fluorophenyl]ethyl}-1-(4-fluorophenyl)-4α-methyl-1,4,4α,5,6,7-hexahydrocyclopenta[f]indazol-5-ol]
C[C@]12Cc3cnn(-c4ccc(F)cc4)c3C=C1CC[C@@]2(O)CCc1ccccc1C(=O)N1CCCC(F)(F)C1 [Example 66, (4αS,5R)-5-(2-{2-[(3,3-difluoropiperidin-1-yl)carbonyl]phenyl}ethyl)-1-(4-fluorophenyl)-4α-methyl-1,4,4α,5,6,7-hexahydrocyclopenta[f]indazol-5-ol]
CC(C)NC(=O)c1c(F)cccc1CC[C@]1(O)CCC2=Cc3c(cnn3-c3ccc(F)cc3)C[C@@]21C [Example 67, 2-fluoro-6-{2-[(4αS,5R)-1-(4-fluorophenyl)-5-hydroxy-4α-methyl-1,4,4α,5,6,7-hexahydrocyclopenta[f]indazol-5-yl]ethyl}-N-isopropylbenzamide]
C[C@]12Cc3cnn(-c4ccc(F)cc4)c3C=C1CC[C@@]2(O)CCc1cccc(F)c1C(N)=O [Example 68, 2-fluoro-6-{2-[(4αS,5R)-1-(4-fluorophenyl)-5-hydroxy-4α-methyl-1,4,4α,5,6,7-hexahydrocyclopenta[f]indazol-5-yl]ethyl}benzamide]
C[C@]12Cc3cnn(-c4ccc(F)cc4)c3C=C1CC[C@@]2(O)CCc1cccc(F)c1C(=O)N1CC[C@H](F)C1 [Example 69, (4αS,5R)-5-[2-(3-fluoro-2-{[(3S)-3-fluoropyrrolidin-1-yl]carbonyl}phenyl)ethyl]-1-(4-fluorophenyl)-4α-methyl-1,4,4α,5,6,7-hexahydrocyclopenta[f]indazol-5-ol]
CC(C)(NC(=O)c1ccccc1CC[C@]1(O)CCC2=Cc3c(cnn3-c3ccc(F)cc3)C[C@@]21C)C(N)=O [Example 70, N-(2-amino-1,1-dimethyl-2-oxoethyl)-2-{2-[(4αS,5R)-1-(4-fluorophenyl)-5-hydroxy-4α-methyl-1,4,4α,5,6,7-hexahydrocyclopenta[f]indazol-5-yl]ethyl}benzamide]
CCNC(=O)C(C)(C)NC(=O)c1ccccc1CC[C@]1(O)CCC2=Cc3c(cnn3-c3ccc(F)cc3)C[C@@]21C [Example 71, N-[2-(ethylamino)-1,1-dimethyl-2-oxoethyl]-2-{2-[(4αS,5R)-1-(4-fluorophenyl)-5-hydroxy-4α-methyl-1,4,4α,5,6,7-hexahydrocyclopenta[f]indazol-5-yl]ethyl}benzamide]
COC(=O)[C@@H](C)NC(=O)c1ccccc1CC[C@]1(O)CCC2=Cc3c(cnn3-c3ccc(F)cc3)C[C@@]21C [Example 72, methyl N-(2-{2-[(4αS,5R)-1-(4-fluorophenyl)-5-hydroxy-4α-methyl-1,4,4α,5,6,7-hexahydrocyclopenta[f]indazol-5-yl]ethyl}benzoyl)-D-alaninate]
CC1CN1C(=O)c1ccccc1CC[C@]1(O)CCC2=Cc3c(cnn3-c3ccc(F)cc3)C[C@@]21C (stereo partly drawn) [Example 73, (4αS,5R)-1-(4-fluorophenyl)-4α-methyl-5-(2-{2-[(2-methylaziridin-1-yl)carbonyl]phenyl}ethyl)-1,4,4α,5,6,7-hexahydrocyclopenta[f]indazol-5-ol]
C[C@]12Cc3cnn(-c4ccc(F)cc4)c3C=C1CC[C@@]2(O)CCc1ccccc1C(=O)N1CCC(F)(F)C1 [Example 74, (4αS,5R)-5-(2-{2-[(3,3-difluoropyrrolidin-1-yl)carbonyl]phenyl}ethyl)-1-(4-fluorophenyl)-4α-methyl-1,4,4α,5,6,7-hexahydrocyclopenta[f]indazol-5-ol]
CNC(=O)C(C)(C)NC(=O)c1ccccc1CC[C@]1(O)CCC2=Cc3c(cnn3-c3ccc(F)cc3)C[C@@]21C [Example 75, N-[1,1-dimethyl-2-(methylamino)-2-oxoethyl]-2-{2-[(4αS,5R)-1-(4-fluorophenyl)-5-hydroxy-4α-methyl-1,4,4α,5,6,7-hexahydrocyclopenta[f]indazol-5-yl]ethyl}benzamide]
C[C@]12Cc3cnn(-c4ccc(F)cc4)c3C=C1CC[C@@]2(O)CCc1cccc(F)c1C(=O)N1CCCC(F)(F)C1 [Example 76, (4αS,5R)-5-(2-{2-[(3,3-difluoropiperidin-1-yl)carbonyl]-3-fluorophenyl}ethyl)-1-(4-fluorophenyl)-4α-methyl-1,4,4α,5,6,7-hexahydrocyclopenta[f]indazol-5-ol]
C[C@]12Cc3cnn(-c4ccc(F)cc4)c3C=C1CC[C@@]2(O)CCc1cccc(F)c1C(=O)N1CCC(F)(F)C1 [Example 77, (4αS,5R)-5-(2-{2-[(3,3-difluoropyrrolidin-1-yl)carbonyl]-3-fluorophenyl}ethyl)-1-(4-fluorophenyl)-4α-methyl-1,4,4α,5,6,7-hexahydrocyclopenta[f]indazol-5-ol]
C[C@]12Cc3cnn(-c4ccc(F)cc4)c3C=C1CC[C@@]2(O)CCc1cccc(F)c1CNS(=O)(=O)c1ccccc1 [Example 78, N-(2-fluoro-6-{2-[(4αS,5R)-1-(4-fluorophenyl)-5-hydroxy-4α-methyl-1,4,4α,5,6,7-hexahydrocyclopenta[f]indazol-5-yl]ethyl}benzyl)benzenesulfonamide]
C[C@]12Cc3cnn(-c4ccc(F)cc4)c3C=C1CC[C@@]2(O)CCc1cccc(F)c1CNS(=O)(=O)c1ccc(F)cc1F [Example 79, 2,4-difluoro-N-(2-fluoro-6-{2-[(4αS,5R)-1-(4-fluorophenyl)-5-hydroxy-4α-methyl-1,4,4α,5,6,7-hexahydrocyclopenta[f]indazol-5-yl]ethyl}benzyl)benzenesulfonamide]
